Tested on: HIV in the HTLV-1 transformed cell line MT-4
Assay: organism not typed
Assay type: cell-based
Settings: MT-4 cells, luciferase/cell titer glo readout after 96 hours, 10 point dose response

Structure (SMILES) | IC50 (MT4, 96 h) | IC50
Cc1ccc(-c2c(C)c3c(c(C)c2[C@H](OC(C)(C)C)C(=O)O)CN(C(=O)c2cncc(C)c2)C3)cc1 [Example 236, (S)-2-(tert-butoxy)-2-(4,7-dimethyl-2-(5-methylnicotinoyl)-6-(p-tolyl)isoindolin-5-yl)acetic acid] | 5 nM | –
Cc1ccc(-c2c(C)c3c(c(C)c2[C@H](OC(C)(C)C)C(=O)O)CN(C(=O)c2cn(C)cn2)C3)cc1 [Example 237, (S)-2-(tert-butoxy)-2-(4,7-dimethyl-2-(1-methyl-1H-imidazole-4-carbonyl)-6-(p-tolyl)isoindolin-5-yl)acetic acid] | 67 nM | –
Cc1ccc(-c2c(C)c3c(c(C)c2[C@H](OC(C)(C)C)C(=O)O)CN(C(=O)c2nccn2C)C3)cc1 [Example 238, (S)-2-(tert-butoxy)-2-(4,7-dimethyl-2-(1-methyl-1H-imidazole-2-carbonyl)-6-(p-tolyl)isoindolin-5-yl)acetic acid] | – | 940 nM
Cc1ccc(-c2c(C)c3c(c(C)c2[C@H](OC(C)(C)C)C(=O)O)CN(C(=O)c2nccn2C)C3)cc1 [Example 239, (S)-2-(tert-butoxy)-2-(4,7-dimethyl-2-(1-methyl-1H-imidazole-2-carbonyl)-6-(p-tolyl)isoindolin-5-yl)acetic acid] | – | 16 nM
Cc1ccc(-c2c(C)c3c(c(C)c2[C@H](OC(C)(C)C)C(=O)O)CN(C(=O)c2ccn(C)n2)C3)cc1 [Example 240, (S)-2-(tert-butoxy)-2-(4,7-dimethyl-2-(1-methyl-1H-pyrazole-3-carbonyl)-6-(p-tolyl)isoindolin-5-yl)acetic acid] | 121 nM | –
Cc1ccc(-c2c(C)c3c(c(C)c2[C@H](OC(C)(C)C)C(=O)O)CN(C(=O)C(C)(C)C(F)(F)F)C3)cc1 [Example 241, (S)-2-(tert-butoxy)-2-(4,7-dimethyl-6-(p-tolyl)-2-(3,3,3-trifluoro-2,2-dimethylpropanoyl)isoindolin-5-yl)acetic acid] | 25 nM | –
Cc1ccc(-c2c(C)c3c(c(C)c2[C@H](OC(C)(C)C)C(=O)O)CN(C(=O)c2ccccc2C(C)(C)C)C3)cc1 [Example 242, (S)-2-(tert-butoxy)-2-(2-(2-(tert-butyl)benzoyl)-4,7-dimethyl-6-(p-tolyl)isoindolin-5-yl)acetic acid] | 13 nM | –
Cc1ccc(-c2c(C)c3c(c(C)c2[C@H](OC(C)(C)C)C(=O)O)CN(C(=O)C2(C)CCCCC2)C3)cc1 [Example 243, (S)-2-(tert-butoxy)-2-(4,7-dimethyl-2-(1-methylcyclohexanecarbonyl)-6-(p-tolyl)isoindolin-5-yl)acetic acid] | 18 nM | –
COC1CCCC(C(=O)N2Cc3c(C)c(-c4ccc(C)cc4)c([C@H](OC(C)(C)C)C(=O)O)c(C)c3C2)C1 (stereo partly drawn) [Example 244, (2S)-2-(tert-butoxy)-2-(2-(3-methoxycyclohexanecarbonyl)-4,7-dimethyl-6-(p-tolyl)isoindolin-5-yl)acetic acid] | 14 nM | –
COC1CCCC(C(=O)N2Cc3c(C)c(-c4ccc(C)cc4)c([C@H](OC(C)(C)C)C(=O)O)c(C)c3C2)C1 (stereo partly drawn) [Example 245, (2S)-2-(tert-butoxy)-2-(2-(3-methoxycyclohexanecarbonyl)-4,7-dimethyl-6-(p-tolyl)isoindolin-5-yl)acetic acid] | – | 26 nM
Cc1ccc(-c2c(C)c3c(c(C)c2[C@H](OC(C)(C)C)C(=O)O)CN(C(=O)c2ccc(F)c(C)c2)C3)cc1 [Example 246, (S)-2-(tert-butoxy)-2-(2-(4-fluoro-3-methylbenzoyl)-4,7-dimethyl-6-(p-tolyl)isoindolin-5-yl)acetic acid] | 5 nM | –
Cc1ccc(-c2c(C)c3c(c(C)c2[C@H](OC(C)(C)C)C(=O)O)CN(C(=O)c2ccc(F)cc2F)C3)cc1 [Example 247, (S)-2-(tert-butoxy)-2-(2-(2,4-difluorobenzol)-4,7-dimethyl-6-(p-tolyl)isoindolin-5-yl)acetic acid] | 5 nM | –
COc1ccc(F)c(C(=O)N2Cc3c(C)c(-c4ccc(C)cc4)c([C@H](OC(C)(C)C)C(=O)O)c(C)c3C2)c1 [Example 248, (S)-2-(tert-butoxy)-2-(2-(2-fluoro-5-methoxybenzoyl)-4,7-dimethyl-6-(p-tolyl)isoindolin-5-yl)acetic acid] | 5 nM | –
COc1ccc(C)c(C(=O)N2Cc3c(C)c(-c4ccc(C)cc4)c([C@H](OC(C)(C)C)C(=O)O)c(C)c3C2)c1 [Example 249, (S)-2-(tert-butoxy)-2-(2-(5-methoxy-2-methylbenzoyl)-4,7-dimethyl-6-(p-tolyl)isoindolin-5-yl)acetic acid] | 5 nM | –
COc1ccc(C)cc1C(=O)N1Cc2c(C)c(-c3ccc(C)cc3)c([C@H](OC(C)(C)C)C(=O)O)c(C)c2C1 [Example 250, (S)-2-(tert-butoxy)-2-(2-(2-methoxy-5-methylbenzoyl)-4,7-dimethyl-6-(p-tolyl)isoindolin-5-yl)acetic acid] | 4 nM | –
COc1cc(C(=O)N2Cc3c(C)c(-c4ccc(C)cc4)c([C@H](OC(C)(C)C)C(=O)O)c(C)c3C2)ccc1F [Example 251, (S)-2-(tert-butoxy)-2-(2-(4-fluoro-3-methoxybenzoyl)-4,7-dimethyl-6-(p-tolyl)isoindolin-5-yl)acetic acid] | 3 nM | –

Structure (SMILES) | IC50 (MT4, 96 h) | IC50
Cc1ccc(-c2c(C)c3c(c(C)c2[C@H](OC(C)(C)C)C(=O)O)CN(C(=O)c2ccc(F)c(Cl)c2)C3)cc1 [Example 252, (S)-2-(tert-butoxy)-2-(2-(3-chloro-4-fluorobenzoyl)-4,7-dimethyl-6-(p-tolyl)isoindolin-5-yl)acetic acid] | 4 nM | –
COc1cccc(C(=O)N2Cc3c(C)c(-c4ccc(C)cc4)c([C@H](OC(C)(C)C)C(=O)O)c(C)c3C2)c1F [Example 253, (S)-2-(tert-butoxy)-2-(2-(2-fluoro-3-methoxybenzoyl)-4,7-dimethyl-6-(p-tolyl)isoindolin-5-yl)acetic acid] | 12 nM | –
Cc1ccc(-c2c(C)c3c(c(C)c2[C@H](OC(C)(C)C)C(=O)O)CN(C(=O)c2ccc(F)cc2)C3)cc1 [Example 254, (S)-2-(tert-butoxy)-2-(2-(4-fluorobenzoyl)-4,7-dimethyl-6-(p-tolyl)isoindolin-5-yl)acetic acid] | 4 nM | –
Cc1ccc(-c2c(C)c3c(c(C)c2[C@H](OC(C)(C)C)C(=O)O)CN(C(=O)c2ccc4c(c2)OCCO4)C3)cc1 [Example 255, (S)-2-(tert-butoxy)-2-(2-(2,3-dihydrobenzo[b][1,4]dioxine-6-carbonyl)-4,7-dimethyl-6-(p-tolyl)isoindolin-5-yl)acetic acid] | 13 nM | –
Cc1ccc(-c2c(C)c3c(c(C)c2[C@H](OC(C)(C)C)C(=O)O)CN(C(=O)c2ccc4c(c2)B(O)OC4)C3)cc1 [Example 256, (S)-2-(tert-butoxy)-2-(2-(1-hydroxy-1,3-dihydrobenzo[c][1,2]oxaborole-6-carbonyl)-4,7-dimethyl-6-(p-tolyl)isoindolin-5-yl)acetic acid] | 740 nM | –
Cc1ccc(-c2c(C)c3c(c(C)c2[C@H](OC(C)(C)C)C(=O)O)CN(C(=O)c2cccc(B(O)O)c2)C3)cc1 [Example 257, (S)-2-(2-(3-boronobenzoyl)-4,7-dimethyl-6-(p-tolyl)isoindolin-5-yl)-2-(tert-butoxy)acetic acid] | 134 nM | –
COc1cccc(C(=O)N2Cc3c(C)c(-c4ccc(C)cc4)c([C@H](OC(C)(C)C)C(=O)O)c(C)c3C2)c1C [Example 258, (S)-2-(tert-butoxy)-2-(2-(3-methoxy-2-methylbenzoyl)-4,7-dimethyl-6-(p-tolyl)isoindolin-5-yl)acetic acid] | 15 nM | –
Cc1ccc(-c2c(C)c3c(c(C)c2[C@H](OC(C)(C)C)C(=O)O)CN(C(=O)c2cccnc2C)C3)cc1 [Example 259, (S)-2-(tert-butoxy)-2-(4,7-dimethyl-2-(2-methylnicotinoyl)-6-(p-tolyl)isoindolin-5-yl)acetic acid] | 20 nM | –
Cc1ccc(-c2c(C)c3c(c(C)c2[C@H](OC(C)(C)C)C(=O)O)CN(C(=O)c2cnccc2C)C3)cc1 [Example 260, (S)-2-(tert-butoxy)-2-(4,7-dimethyl-2-(4-methylnicotinoyl)-6-(p-tolyl)isoindolin-5-yl)acetic acid] | 15 nM | –
Cc1ccc(-c2c(C)c3c(c(C)c2[C@H](OC(C)(C)C)C(=O)O)CN(C(=O)c2ccc(F)c(F)c2)C3)cc1 [Example 261, (S)-2-(tert-butoxy)-2-(2-(3,4-difluorobenzol)-4,7-dimethyl-6-(p-tolyl)isoindolin-5-yl)acetic acid] | 4 nM | –
Cc1ccc(-c2c(C)c3c(c(C)c2[C@H](OC(C)(C)C)C(=O)O)CN(C(=O)c2cc(F)ccc2F)C3)cc1 [Example 262, (S)-2-(tert-butoxy)-2-(2-(2,5-difluorobenzoyl)-4,7-dimethyl-6-(p-tolyl)isoindolin-5-yl)acetic acid] | 5 nM | –
Cc1ccc(-c2c(C)c3c(c(C)c2[C@H](OC(C)(C)C)C(=O)O)CN(C(=O)c2cc(Cl)ccc2C)C3)cc1 [Example 263, (S)-2-(tert-butoxy)-2-(2-(5-chloro-2-methylbenzoyl)-4,7-dimethyl-6-(p-tolyl)isoindolin-5-yl)acetic acid] | 6 nM | –
Cc1ccc(-c2c(C)c3c(c(C)c2[C@H](OC(C)(C)C)C(=O)O)CN(C(=O)c2ccc(Cl)c(F)c2)C3)cc1 [Example 264, (S)-2-(tert-butoxy)-2-(2-(4-chloro-3-fluorobenzoyl)-4,7-dimethyl-6-(p-tolyl)isoindolin-5-yl)acetic acid] | 9 nM | –
Cc1ccc(-c2c(C)c3c(c(C)c2[C@H](OC(C)(C)C)C(=O)O)CN(C(=O)c2ccc4c(c2)OCO4)C3)cc1 [Example 265, (S)-2-(2-(benzo[d][1,3]dioxole-5-carbonyl)-4,7-dimethyl-6-(p-tolyl)isoindolin-5-yl)-2-(tert-butoxy)acetic acid] | 4 nM | –
Cc1ccc(-c2c(C)c3c(c(C)c2[C@H](OC(C)(C)C)C(=O)O)CN(C(=O)c2cc(F)cc(C(N)=O)c2)C3)cc1 [Example 266, (S)-2-(tert-butoxy)-2-(2-(3-carbamoyl-5-fluorobenzoyl)-4,7-dimethyl-6-(p-tolyl)isoindolin-5-yl)acetic acid] | 126 nM | –
